Reference: patent publication US10272120B2, “Synergistic composition comprising propolis and carnosic acid for use in the prevention and treatment of candidiasis” (priority 2015, dated 2019)
Converted amounts (≈) assume the structure as drawn.

Assays:
C. albicans strain CAI-4 = test: Viability assay in liquid YPD medium and colony formation on solid YPD; assay type: cell-based, Candida albicans; details: concentrations of 200 y 2000 μg/ml
Method: FIG. 1. Viability assay on liquid YPD medium (A) and colony formation on solid YPD medium (B) on C. albicans strain CAI-4 to different concentrations of carnosic acid, propolis 2 and 3. It started from a preinocolum culture incubated overnight at 28° C.; the next day refreshed in YPD medium to a D.O600 nm=0.3. The culture was allowed to grow to D.O600 nm=0.6 at 37° C., moment at which the compounds, object of the study, are added for one hour at the same temperature. Additionally, a positive control of antifungal activity with amphotericin B was included under the same conditions.
(§1) Assays were carried out in liquid YPD medium (1% yeast extract, 2% peptone and 2% glucose) at 37° C. Initially the C. albicans strain CAI-4 was used, but as it presented growth problems during the calculation of the MIC, it was replaced by its parental (SC5314, wild type), widely used in the laboratory. The procedure consisted of applying different concentrations of carnosic acid and propolis (one hour, unless other times are indicated) on exponential cultures of C. albicans grown in YPD. The percentage of cell viability was determined by counting the number of viable cells in the solid YPD medium after incubation at 37° C. for 24-48 hours (FIG. 1).

[1] = test system: C. albicans standard strain SC5314; test: Viability assay in liquid medium and colony formation on solid YPD; assay type: cell-based, Candida albicans; details: various concentrations, exponential YPD liquid cultures
Source text: FIG. 2. Viability assay in liquid medium of the C. albicans standard strain SC5314 to different concentrations of carnosic acid and propolis 1. As a positive control Amphotericin B was used. Due to the particular behaviour of the CAI-4 strain when carrying out MICs, it was decided to use the wild strain SC5314 ([…] parental), in order to validate the effect of the compounds of study on an international C. albicans reference strain. The assay followed the same procedure described in FIG. 1.
FIG. 3. Assay of macroscopic colony formation in solid YPD medium. The C. albicans standard strain SC5314 was used to the concentrations of carnosic acid and propolis 1 indicated. As a positive control Amphotericin B was used. For further details of methodology see FIG. 1.
as §1, with “The procedure consisted of applying different concentrations of carnosic acid and propolis (one hour, unless other times are indicated) on exponential cultures of C. albicans grown in YPD.” left out, “1). […]” for “1).”

SC5314 strain = test: Cell morphology by optical microscopy; assay type: cell-based, Candida albicans
Source text: FIG. 5. Optical micrographs (100×) where it can be seen how the treatment with increasing doses of carnosic acid caused visible alterations in the cellular morphology, resulting in cells with a more swollen and deformed aspect, with increased birefringence and the apparent loss of ability to transition dimorphically to mycelial structures (hyphae).
FIG. 6. Optical micrographs (40×) taken in order to provide better visual field with higher cell density, using the same cultures as in FIG. 5. The presence of swollen cells is very significant in the image, with a carnosic acid concentration of 100 μg/ml.

parental strain SC5314 [2] = test: MIC determination; assay type: cell-based; details: Candida albicans
[3] = test system: C. albicans yeast (blastoconides) CAI-4; test: Cell morphology by optical microscopy (Nomarsky); assay type: cell-based, Candida albicans
Method: FIG. 4. Inspection of the cell morphology by optical microscopy, using the interference contrast of “Nomarsky” on C. albicans yeast (blastoconides) CAI-4, treated with: propolis 3 (200 μg/ml), carnosic acid (100 μg/ml) and the combination of both compounds.
As an essential tool in understanding the effectiveness of these compounds on C. albicans cell viability, detailed studies on the effects of their administration on the cell morphology of this opportunistic pathogen, visualized by optical microscopy, were performed (FIGS. 4, 5 and 6).

[4] = test system: C. albicans strain SC5314; test: Yeast-hyphae dimorphic transition induced by human serum; assay type: cell-based, Candida albicans; details: YPD plus human serum at 10%, 37° C., different concentrations
Method: FIG. 9. Effect of the addition of carnosic acid on the percentage of yeast-hyphae dimorphic transition in C. albicans induced by human serum at 37° C. Exponential cultures of strain SC5314 were centrifuged and resuspended in fresh YPD medium preheated at 37° C. Identical samples were treated with carnosic acid at the indicated concentrations, using an untreated sample and a sample maintained at 28° C. as controls. The percentage of germ tubes emission (first stage of the formation of hyphae) was calculated by direct microscopic count with a hemocytometer.
FIG. 10. Micrographs illustrating the effect of carnosic acid on the dimorphism of C. albicans. In the control assay with the lowest concentration of carnosic acid, a high percentage of filamentation (grouped hyphae forming a mycelium) which decreased proportionally with increasing dose of the latter, was observed.
These assays are also complemented with the evaluation of the influence on the morphology (dimorphism) of C. albicans. In FIGS. 9 and 10, the effect of the carnosic acid on the dimorphic transition of the strain SC5314 of C. albicans was explored, given that the yeast-mycelium dimorphic transition is considered to be a factor of virulence in this opportunistic pathogen. To do this, an “overnight” culture was […] to a low optical density (0.1) and left to grow to 0.3 at 37° C. […]

CAI-4 = test: MIC determination; assay type: cell-based; details: Candida albicans; strain CAI-4
parental strain SC5314 [5] = test: Inhibition kinetics / synergy assay, liquid medium and colony formation on plate; assay type: cell-based, Candida albicans; details: carnosic acid 50 μg/ml, propolis 3 200 μg/ml
Method: FIG. 8. (A) Measurement of the kinetic growth in the parental strain SC5314. With regard to previous assays, the following modifications were used: (i) Reduction of the concentration of carnosic acid to 50 μg/ml, maintaining that of the propolis 3 (PP) at (200 μg/ml), in order to better monitor its effect on cell viability. […] (B) Assay of colony formation on plate.
Then, in strain SC5314, as it is a reference lineage, new experiments simultaneously measuring the kinetics of inhibition of cell viability at sub-inhibitory concentrations of the carnosic acid (up to 50 μg/ml) and propolis 3 (200 μg/ml) were conducted together with the synergy assays between the two. The tested aliquots come from a single initial exponential culture and, therefore, the physiological state of the cells is identical.

## CC(C)c1cc2c(c(O)c1O)[C@@]1(C(=O)O)CCCC(C)(C)[C@@H]1CC2 [carnosic acid]
C. albicans strain CAI-4
  antifungal effect: strong antifungal effect
[1]
  cell viability: significant decrease in cell viability
SC5314 strain; 100 μg/ml of carnosic acid, Nomarsky contrast
  cell morphology: growing swelling
SC5314 strain; 500 μg/ml
  cells seen in micrograph (40×): small number of cells
SC5314 strain; increasing concentration of carnosic acid
  cell morphology: swelling and deformation of the yeast cells
Parental strain SC5314 [2]
  MIC: 250 µg/mL (≈ 752 µM)
[3]; more significant after five hours of treatment
  effect on cell morphology: apparent cellular reduction of size (volume)
[3]; propolis 3 200 μg/ml, carnosic acid 100 μg/ml, and the combination
  cell morphology (FIG. 4 legend): significant reduction in cell size
[4]
  filamentation (yeast-mycelium dimorphic transition): reduced the filamentation of C. albicans in a dose-dependent way
CAI-4
  MIC: 250 µg/mL (≈ 752 µM)
Parental strain SC5314 [5]
  antifungal action considered individually: strong antifungal action
Parental strain SC5314 [5]; combination read at one hour
  growth on plate (FIG. 8): growth is visible
